Measured values from patent EP1377579B1 (Aventis Pharmaceuticals Inc., priority 2000, dated 2002).
pIC50: −log10 of the molar value. Where a name gives a salt, the structure may show the parent alone.

Assays:
[1] = test system: PC-3; assay: In vitro proliferation assay (MTT), PC-3; type: cell-based, human; settings: Homo sapiens, PC-3, MTT assay; value (SD, n) where given; read-out: PC-3 Prostate (IC50 µM)
How it was run: (§1)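 Tetrazolium (MTT) reduction measures live cells remaining after 3 days with test compound, following overnight attachment at 1000–2500 cells/well. Dye is taken up in DMSO and read at 570 nm.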

[2] = target: cdk4/cyclin D1 (Homo sapiens, UniProt P11802); assay: Cyclin-dependent kinase assay, cdk4/cyclin D1; type: biochemical; settings: cyclin D1/cdk4; GST-pRb substrate, 10 µM ATP
[3] = target: cdk2/cyclin E (Homo sapiens, UniProt P24941); assay: Cyclin-dependent kinase assay, cdk2/cyclin E; settings: CDK2 IC50, nM, GST-pRb substrate, 10 µM ATP
[4] = target: cdk1/cyclin B (Homo sapiens, UniProt P06493); assay: Cyclin-dependent kinase assay, cdk1/cyclin B; settings: CDK1 IC50, nM, Histone H1, 10 µM ATP
[5] = test system: MDA-MB-435; assay: In vitro proliferation assay (MTT), MDA-MB-435; type: cell-based, human; settings: Homo sapiens, MDA-MB-435, MTT assay; value (SD, n) where given; read-out: MB-435 Breast (IC50 µM)
How it was run: as §1

cdk4/cyclin D1, sequence (P11802 whole entry): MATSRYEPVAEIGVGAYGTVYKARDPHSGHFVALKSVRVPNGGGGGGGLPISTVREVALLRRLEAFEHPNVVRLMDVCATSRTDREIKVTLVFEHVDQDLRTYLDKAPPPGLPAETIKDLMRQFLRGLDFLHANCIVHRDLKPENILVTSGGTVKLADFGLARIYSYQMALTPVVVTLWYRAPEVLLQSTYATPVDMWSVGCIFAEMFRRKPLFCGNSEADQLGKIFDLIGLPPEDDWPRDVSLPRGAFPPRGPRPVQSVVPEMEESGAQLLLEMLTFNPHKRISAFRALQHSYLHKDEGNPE
cdk4/cyclin D1, sequence (P24385 whole entry partner): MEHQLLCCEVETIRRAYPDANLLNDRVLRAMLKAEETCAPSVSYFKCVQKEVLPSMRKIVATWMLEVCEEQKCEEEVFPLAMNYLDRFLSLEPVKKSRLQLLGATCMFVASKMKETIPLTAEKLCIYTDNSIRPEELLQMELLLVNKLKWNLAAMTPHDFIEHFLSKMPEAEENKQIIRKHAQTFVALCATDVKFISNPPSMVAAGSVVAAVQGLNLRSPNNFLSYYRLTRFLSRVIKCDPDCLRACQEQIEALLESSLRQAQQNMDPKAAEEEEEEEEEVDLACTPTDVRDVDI
cdk1/cyclin B, sequence (P06493 whole entry): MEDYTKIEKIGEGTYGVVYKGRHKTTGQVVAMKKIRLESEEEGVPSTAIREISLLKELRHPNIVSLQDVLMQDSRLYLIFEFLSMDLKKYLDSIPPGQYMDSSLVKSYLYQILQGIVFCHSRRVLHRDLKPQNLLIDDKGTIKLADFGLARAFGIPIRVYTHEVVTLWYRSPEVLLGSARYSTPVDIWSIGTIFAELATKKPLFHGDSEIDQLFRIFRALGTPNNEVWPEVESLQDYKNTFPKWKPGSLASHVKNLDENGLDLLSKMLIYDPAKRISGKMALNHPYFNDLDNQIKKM
cdk1/cyclin B, sequence (P14635 whole entry partner): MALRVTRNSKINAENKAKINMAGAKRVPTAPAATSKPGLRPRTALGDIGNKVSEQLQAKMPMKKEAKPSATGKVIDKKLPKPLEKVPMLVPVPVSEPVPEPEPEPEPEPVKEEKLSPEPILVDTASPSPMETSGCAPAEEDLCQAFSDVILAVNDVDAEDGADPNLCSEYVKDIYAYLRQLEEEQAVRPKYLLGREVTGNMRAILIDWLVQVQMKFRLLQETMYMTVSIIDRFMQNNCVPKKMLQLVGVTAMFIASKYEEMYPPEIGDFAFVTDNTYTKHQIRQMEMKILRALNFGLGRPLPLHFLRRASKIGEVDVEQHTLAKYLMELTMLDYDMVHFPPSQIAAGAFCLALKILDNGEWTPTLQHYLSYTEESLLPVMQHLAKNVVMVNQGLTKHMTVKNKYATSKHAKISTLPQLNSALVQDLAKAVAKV

| IC50 [1] [µM] | pIC50 [2] | IC50 [3] [nM] | IC50 [4] [nM] | IC50 [5] [µM] | SMILES |
| --- | --- | --- | --- | --- | --- |
| 1.35 | 6.39 | 73 | 100 | 1.31 | Cc1cccc(C(=O)N2CCC(Nc3nc(N[C@H]4CC[C@H](N)CC4)nc4c3ncn4C3CCCC3)CC2)c1 [compound 73, trans-1-{4-[2-(4-Amino-cyclohexylamino)-9-cyclopentyl-9H-purin-6-ylamino]-piperidin-1-yl}-1-(3-methyl-phenyl)-methanone] |
| 1.25 | 6.25 | 239 | 62 | 1.07 | N[C@H]1CC[C@H](Nc2nc(NC3CCN(C(=O)c4ccc(Br)cc4)CC3)c3ncn(C4CCCC4)c3n2)CC1 [compound 74, trans-1-{4-[2-(4-Amino-cyclohexylamino)-9-cyclopentyl-9H-purin-6-ylamino]-piperidin-1-yl}-1-(4-bromo-phenyl)-methanone] |
| 1.7 | 6.10 | 58 | 71 | 1.38 | N[C@H]1CC[C@H](Nc2nc(NC3CCN(C(=O)c4ccc(Cl)cc4)CC3)c3ncn(C4CCCC4)c3n2)CC1 [compound 75, trans-1-{4-[2-(4-Amino-cyclohexylamino)-9-cyclopentyl-9H-purin-6-ylamino]-piperidin-1-yl}-1-(4-chloro-phenyl)-methanone] |
| 1.04 | 6.10 | 179 | 57 | 1.47 | N[C@H]1CC[C@H](Nc2nc(NC3CCN(C(=O)c4ccc(I)cc4)CC3)c3ncn(C4CCCC4)c3n2)CC1 [compound 76, trans-1-{4-[2-(4-Amino-cyclohexylamino)-9-cyclopentyl-9H-purin-6-ylamino]-piperidin-1-yl}-1-(4-iodo-phenyl)-methanone] |
| 1.19 | 6.22 | 71 | 100 | 1.03 | Cc1ccc(C(=O)N2CCC(Nc3nc(N[C@H]4CC[C@H](N)CC4)nc4c3ncn4C3CCCC3)CC2)cc1 [compound 77, trans-1-{4-[2-(4-Amino-cyclohexylamino)-9-cyclopentyl-9H-purin-6-ylamino]-piperidin-1-yl}-1-(4-methyl-phenyl)-methanone] |
| 1.53 | 6.28 | 155 | 101 | 1.56 | N[C@H]1CC[C@H](Nc2nc(NC3CCN(C(=O)c4ccc(Cl)cc4Cl)CC3)c3ncn(C4CCCC4)c3n2)CC1 [compound 78, trans-1-{4-[2-(4-Amino-cyclohexylamino)-9-cyclopentyl-9H-purin-6-ylamino]-piperidin-1-yl}-1-(2,4-dichloro-phenyl)-methanone] |
| 0.27 | 6.32 | 73 | 44 | 0.25 | N[C@H]1CC[C@H](Nc2nc(NC3CCN(C(=O)c4cc(Cl)cc(Cl)c4)CC3)c3ncn(C4CCCC4)c3n2)CC1 [compound 79, trans-1-{4-[2-(4-Amino-cyclohexylamino)-9-cyclopentyl-9H-purin-6-ylamino]-piperidin-1-yl}-1-(3,5-dichloro-phenyl)-methanone] |
| > 50 | 5.09 | 39 | 244 | > 50 | CC(C)n1cnc2c(NC3CCN(C(=O)COc4ccccc4)CC3)nc(N[C@H]3CC[C@H](N)CC3)nc21 [compound 80, trans-1-{4-[2-(4-Amino-cyclohexylamino)-9-isopropyl-9H-purin-6-ylamino]-piperidin-1-yl}-2-phenoxy-ethanone dihydrochloride] |
| 1.21 | 5.10 | 731 | 750 | 2.27 | CCOC(=O)N1CCC(Nc2nc(N[C@H]3CC[C@H](N)CC3)nc3c2ncn3C(C)C)CC1 [compound 104, trans-4-[2-(4-Amino-cyclohexylamino)-9-isopropyl-9H-purin-6-ylamino]-piperidine-1-carboxylic acid ethyl ester dihydrochloride] |
| 5.89 | 7.41 | 7 | 18 | 6.54 | CC(=O)Nc1nc(C)c(S(=O)(=O)N2CCC(Nc3nc(N[C@H]4CC[C@H](N)CC4)nc4c3ncn4C3CCCC3)CC2)s1 [compound 113, trans-N-(5-{4-[2-(4-Amino-cyclohexylamino)-9-cyclopentyl-9H-purin-6-ylamino]-piperidine-1-sulfonyl}-4-methyl-thiazol-2-yl)-acetamide dihydrochloride] |
| 0.48 | 7.10 | 15 | 5 | 0.33 | N[C@H]1CC[C@H](Nc2nc(NC3CCN(S(=O)(=O)c4ccc(Br)cc4)CC3)c3ncn(C4CCCC4)c3n2)CC1 [compound 114, trans-N^2-(4-Amino-cyclohexyl)-9-cyclopentyl-N^6-[1-(4-bromo-benzenesulfonyl)-piperidin-4-yl]-9H-purine-2,6-diamine dihydrochloride] |
| 5.1 | 7.85 | 5 | 5 | 4.24 | CC(=O)Nc1ccc(S(=O)(=O)N2CCC(Nc3nc(N[C@H]4CC[C@H](N)CC4)nc4c3ncn4C3CCCC3)CC2)cc1 [compound 115, trans-N-(4-{4-[2-(4-Amino-cyclohexylamino)-9-cyclopentyl-9H-purin-6-ylamino]-piperidine-1-sulfonyl}-phenyl)-acetamide dihydrochloride] |
| 1.15 | 6.42 | 32 | 18 | 0.64 | N[C@H]1CC[C@H](Nc2nc(NC3CCN(S(=O)(=O)c4ccc5ccccc5c4)CC3)c3ncn(C4CCCC4)c3n2)CC1 [compound 116, trans-N^2-(4-Amino-cyclohexyl)-9-cyclopentyl-N^6-[1-(naphthalene-2-sulfonyl)-piperidin-4-yl]-9H-purine-2,6-diamine dihydrochloride] |
| 0.38 | 7.42 | 38 | 22 | 0.28 | N[C@H]1CC[C@H](Nc2nc(NC3CCN(S(=O)(=O)/C=C/c4ccccc4)CC3)c3ncn(C4CCCC4)c3n2)CC1 [compound 118, trans-N^2-(4-Amino-cyclohexyl)-9-cyclopentyl-N^6-[1-((E)-2-phenyl-ethenesulfonyl)-piperidin-4-yl]-9H-purine-2,6-diamine dihydrochloride] |
| 0.52 | 7.19 | 31 | 25 | 0.4 | N[C@H]1CC[C@H](Nc2nc(NC3CCN(S(=O)(=O)Cc4ccccc4)CC3)c3ncn(C4CCCC4)c3n2)CC1 [compound 119, trans-N^2-(4-Amino-cyclohexyl)-9-cyclopentyl-N^6-(1-phenylmethanesulfonyl-piperidin-4-yl)-9H-purine-2,6-diamine dihydrochloride] |
| 0.82 | 7.08 | 50 | 120 | 0.66 | N[C@H]1CC[C@H](Nc2nc(NC3CCN(S(=O)(=O)c4c(Cl)cccc4Cl)CC3)c3ncn(C4CCCC4)c3n2)CC1 [compound 121, trans-N^2-(4-Amino-cyclohexyl)-9-cyclopentyl-N^6-[1-(2,6-dichloro-benzenesulfonyl)-piperidin-4-yl]-9H-purine-2,6-diamine dihydrochloride] |
| 0.65 | 6.23 | 38 | 10 | 0.48 | N[C@H]1CC[C@H](Nc2nc(NC3CCN(S(=O)(=O)c4ccc(I)cc4)CC3)c3ncn(C4CCCC4)c3n2)CC1 [compound 122, trans-N^2-(4-Amino-cyclohexyl)-9-cyclopentyl-N^6-[1-(4-iodo-benzenesulfonyl)-piperidin-4-yl]-9H-purine-2,6-diamine dihydrochloride] |
| 0.56 | 7.11 | 26 | 10 | 0.44 | Cc1ccc(S(=O)(=O)N2CCC(Nc3nc(N[C@H]4CC[C@H](N)CC4)nc4c3ncn4C3CCCC3)CC2)cc1 [compound 124, trans-N^2-(4-Amino-cyclohexyl)-9-cyclopentyl-N^6-[1-(toluene-4-sulfonyl)-piperidin-4-yl]-9H-purine-2,6-diamine dihydrochloride] |
| 1.29 | 7.21 | 38 | 180 | 1.03 | CC(C)S(=O)(=O)N1CCC(Nc2nc(N[C@H]3CC[C@H](N)CC3)nc3c2ncn3C2CCCC2)CC1 [compound 125, trans-N^2-(4-Amino-cyclohexyl)-9-cyclopentyl-N^6-[1-(propane-2-sulfonyl)-piperidin-4-yl]-9H-purine-2,6-diamine dihydrochloride] |
| 16.8 | 7.26 | 6 | 20 | 19.7 | N[C@H]1CC[C@H](Nc2nc(NC3CCN(S(=O)(=O)c4ccc(C(=O)O)cc4)CC3)c3ncn(C4CCCC4)c3n2)CC1 [compound 126, trans-4-{4-[2-(4-Amino-cyclohexylamino)-9-cyclopentyl-9H-purin-6-ylamino]-piperidine-1-sulfonyl}-benzoic acid dihydrochloride] |
| 0.62 | 7.32 | 17 | 14 | 0.61 | N[C@H]1CC[C@H](Nc2nc(NC3CCN(S(=O)(=O)c4cccc([N+](=O)[O-])c4)CC3)c3ncn(C4CCCC4)c3n2)CC1 [compound 127, trans-N^2-(4-Amino-cyclohexyl)-9-cyclopentyl-N^6-[1-(3-nitro-benzenesulfonyl)-piperidin-4-yl]-9H-purine-2,6-diamine dihydrochloride] |
